Where “and” joins values, the source holds several entries; their conditions need not be identical. Equal values may be shown once.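 Five compound concentrations were applied to cells in 96-well plates for 48 hours; endpoints were derived by simple linear interpolation of the resulting dose-response curve. At the GI50, growth is halved. At the TGI there is no net growth.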
Columns and labels:
Assay in all cases: NCI anticancer screen, dose series, 48 h
786-0 renal = test system: 786-0 renal
CCRF-CEM leukemia = test system: CCRF-CEM leukemia
NCI-H460 lung = test system: NCI-H460 lung
RXF 393 renal = test system: RXF 393 renal
A498 renal = test system: A498 renal
MOLT-4 leukemia = test system: MOLT-4 leukemia
UACC-62 melanoma = test system: UACC-62 melanoma
SK-MEL-5 melanoma = test system: SK-MEL-5 melanoma
UACC-257 melanoma = test system: UACC-257 melanoma
MCF7 breast = test system: MCF7 breast

| Structure (SMILES) | GI50 (786-0 renal) | TGI (786-0 renal) | GI50 (CCRF-CEM leukemia) [µM] | TGI (CCRF-CEM leukemia) | GI50 (NCI-H460 lung) | TGI (NCI-H460 lung) | GI50 (RXF 393 renal) | TGI (RXF 393 renal) | GI50 (A498 renal) [µM] | TGI (A498 renal) | GI50 (MOLT-4 leukemia) | TGI (MOLT-4 leukemia) | GI50 (UACC-62 melanoma) | TGI (UACC-62 melanoma) | GI50 (SK-MEL-5 melanoma) | TGI (SK-MEL-5 melanoma) | GI50 (UACC-257 melanoma) | TGI (UACC-257 melanoma) | GI50 (MCF7 breast) | TGI (MCF7 breast) [µM] |
| --- | --- | --- | --- | --- | --- | --- | --- | --- | --- | --- | --- | --- | --- | --- | --- | --- | --- | --- | --- | --- |
| CC(C)NCCCn1c(Sc2cc3c(cc2I)OCO3)nc2c(N)ncnc21 | 0.515 µM | > 100 µM | 0.425 | > 100 µM | 0.0576 µM | > 100 µM | 0.753 µM | 48.8 µM | 0.435 | 5.6 µM | 0.0915 µM | > 91.9 µM | 0.368 µM | > 41 µM | 0.462 µM | 18 µM | 0.308 µM | 13.5 µM | 0.0453 µM | > 100 |
| O=C1c2c(c3c4ccccc4[nH]c3c3ccc4ccccc4c23)C(=O)N1CCN1CCNCC1 | 1.76 µM | 3.21 µM | 1.33 | 4.22 µM | 1.1 µM | 2.6 µM | 1.76 µM | 3.39 µM | 4.19 | 19.6 µM | 0.487 µM | 1.88 µM | 1.86 µM | 3.77 µM | 1.78 µM | 3.31 µM | 1.87 µM | 3.82 µM | 1 µM | 2.42 |
| OCc1ccc(N2CCCC2c2ccccc2)cc1Cl (stereo not given) | 11.5 µM | 28.4 µM | 6.44 | 39.7 µM | 0.833 µM | 7.22 µM | 3.2 µM | 15.2 µM | 0.136 | 0.306 µM | 4.75 µM | 24.9 µM | 0.665 µM | 4.01 µM | 3.33 µM | 9.36 µM | 0.544 µM | 2.11 µM | 1.42 µM | 13.2 |
| COC1C=COC2(C)Oc3c(C)c(O)c4c(c3C2=O)/C(=N/C2CCC(O)OC2C)C=C(NC(=O)/C(C)=C\C(=O)C2CC2C(O)C(C)C(O)C(C)C(OC(C)=O)C1C)C4=O (stereo not given) | – | 3.13 µM | – | 10.9 µM | – | 11.5 µM | – | 3.45 µM | – | 8.36 µM | – | 8.05 µM | – | 4.3 µM | – | 4.97 µM | – | 5.98 µM | – | 4.74 |
| O=C1c2ccccc2-c2cc([N+](=O)[O-])c([N+](=O)[O-])cc21 | – | 5.86 µM | – | 0.958 µM | – | 3.06 µM | – | 2.64 µM | – | 33.1 µM | – | 4.36 µM | – | 3.13 µM | – | 3.94 µM | – | 2.74 µM | – | 2.4 |
| COc1cccc(OC(=O)c2ccc(C(F)(F)F)nc2Nc2cc(Cl)ccc2C)c1 | 10.7 µM | 24.5 µM | 2.12 | 5.13 µM | 2.92 µM | 15.4 µM | 0.245 µM | 0.987 µM | 4.19 | 20.9 µM | 3.11 µM | 7.99 µM | 3.3 µM | 20 µM | 2.63 µM | 12.5 µM | 13.3 µM | 54.8 µM | 4.2 µM | > 100 |
| Nc1nc(OCc2ccccc2)c2[nH]cnc2n1 | 40.1 µM and 27.8 µM | 400 µM and 96.9 µM | 39.5 | 319 µM and 274 µM | 35.8 µM and 37.6 µM | 400 µM and 195 µM | 14.4 µM and 22.1 µM | 94.5 µM and 169 µM and 145 µM | 15.2 | 183 µM and 71.3 µM | 88.4 µM and 33.5 µM | 200 µM and 126 µM | 25 µM and 17.3 µM | 128 µM and 90.7 µM | 34.5 µM and 35.4 µM | 193 µM and 149 µM | 39.8 µM and 157 µM | 400 µM and 736 µM | 41.9 µM and 41.8 µM | 355 |

Reference: PubChem BioAssay (NCI)
